# Columns and labels:
# tubules of MDCK cells = experiment: Contractility of renal tubule model lined by MDCK cells (kymogram analysis of time-lapse images); assay type: cell-based, canine; settings: 250 μm wide MDCK-lined tunnels in collagen I gel; 50 μM inhibitor then washout; FIG. 3B, n=2
# Method: Time-lapse recordings of kidney epithelial cells in hydrogel tunnels were performed on a Zeiss Axio Observer Z1 ® inverted microscope with a 10× Plan Neofluar® objective. The microscope was equipped with a Marzhauser SCAN-IM powered stage and a Zeiss AxioCam® MRm CCD camera. Cell cultures established in flow chambers within cell culture dishes (Greiner) were continuously kept in a stage-incubator (Cell Movie) providing 37° C. and humidified 5% CO2 atmosphere. Stage positioning, focusing and image collection were all controlled by Zeiss Axiovision® 4.8 software and a custom-made experiment manager software module. […]
# Contraction of renal tubule models were analyzed on the basis of image series captured by phase-contrast time-lapse video microscopy. […]
# The inhibitor was applied at 50 μM final concentration in the flow chamber without circulation, resulting in dilation of the tunnel within 30 minutes. […] Both the dilation and contraction responses were quantitatively analyzed by constructing kymograms from the phase-contrast time-lapse image series as shown in FIG. 3A. […] The relative contraction (as defined by the ratio of the measured contraction to tubule diameter) is larger for tubules with smaller diameters: while the 250 μm tubule contracts almost 13% of its diameter, a 600 μm large tubule contracts only about 5% as shown in FIG. 3C. […]
# tubules of M1 cells = experiment: Contractility of renal tubule model lined by M1 cells (kymogram analysis of time-lapse images); assay type: cell-based, mouse; settings: for relative contraction (ratio of measured contraction to tubule diameter): percent of untreated tubule diameter, FIG. 3C
# Method: Time-lapse recordings of kidney epithelial cells in hydrogel tunnels were performed on a Zeiss Axio Observer Z1 ® inverted microscope with a 10× Plan Neofluar® objective. The microscope was equipped with a Marzhauser SCAN-IM powered stage and a Zeiss AxioCam® MRm CCD camera. Cell cultures established in flow chambers within cell culture dishes (Greiner) were continuously kept in a stage-incubator (Cell Movie) providing 37° C. and humidified 5% CO2 atmosphere. Stage positioning, focusing and image collection were all controlled by Zeiss Axiovision® 4.8 software and a custom-made experiment manager software module. Phase contrast images were collected consecutively in every 10 minutes from several microscopic fields for up to 4 days. Alternatively, for real-time video microscopy the images were captured at a rate of 20 frames per second.
# Contraction of renal tubule models were analyzed on the basis of image series captured by phase-contrast time-lapse video microscopy. Using NIH ImageJ software's Reslice function image series were resliced along a cross sectional line across the tubule resulting in a kymogram.
# For inhibition of actomyosin contractility, Y27632, a cell-permeable Rho kinase inhibitor, (Merck Millipore (9) was applied. The inhibitor was dissolved in water and kept in 10 mM stock solutions and used at 50 μM final concentration. For control treatments, an identical volume of water was applied.
# The inhibitor was applied at 50 μM final concentration in the flow chamber without circulation, resulting in dilation of the tunnel within 30 minutes. […] Both the dilation and contraction responses were quantitatively analyzed by constructing kymograms from the phase-contrast time-lapse image series as shown in FIG. 3A. In a collagen I gel, the diameter of 250 μm wide M1- or MDCK-lined tunnels contracted by 20 or 15 μm, respectively as shown in FIG. 3B. The relative contraction (as defined by the ratio of the measured contraction to tubule diameter) is larger for tubules with smaller diameters: while the 250 μm tubule contracts almost […] of its diameter, a 600 μm large tubule contracts only about 5% as shown in FIG. 3C.
# FIGS. 3A-3C show the contractility of model renal tubules. FIG. 3A includes a representative kymogram along a perpendicular cross section of a tubule of M1 cells in collagen I gel matrix. Time progresses from top to bottom, a 10h long interval is indicated by the arrow. The duration of treatment with 50 μM Y27632 Rho kinase inhibitor is indicated with the red line (scale bar: 50 μm). FIGS. 3B-3C include graphs illustrating quantitative analysis of tubule contractility. […] Error bars represent SEM.
compound,measurement,setting,value
C[C@@H](N)[C@H]1CC[C@H](C(=O)Nc2ccncc2)CC1 [Y27632],contraction of tunnel diameter,tubules of MDCK cells,15 μm
same,time to dilation of the tunnel,"tubules of M1 cells; 50 μM final concentration in the flow chamber without circulation, cell line not given, FIG. 3A kymogram is M1 cells in collagen I gel",≤ 30 min
same,relative contraction (ratio of measured contraction to tubule diameter),tubules of M1 cells; 250 μm tubule of M1 cells,~13%
same,contraction of tunnel diameter,"tubules of M1 cells; 250 μm wide M1-lined tunnels in collagen I gel, 50 μM inhibitor then washout, FIG. 3B, n=2",20 μm
same,relative contraction (ratio of measured contraction to tubule diameter),tubules of M1 cells; 600 μm tubule of M1 cells,about 5%
same,effect of subsequent washout of the inhibitor on the tunnel,"tubules of M1 cells; after 50 μM treatment, washout",gradual contraction of the tunnel to approximately its initial state

# From patent US12281333B2, “Renal tube assay device and methods of manufacture and use” (The University of Kansas, priority 2020, dated 2025)
